Laboratory results as given in patent US20130090329A1, “Methods and Compositions for the Treatment of Psychotic Disorders Through the Identification of the Olanzapine Poor Response Predictor Genetic Signature” (SUREGENE, LLC, priority 2011, published 2013).
Marks after values point to notes of the source that are not given here.

What was measured:
[1] = test system: patients suffering from schizophrenia and related disorders; assay: CATIE study: percent change in total PANSS from baseline to LOCF, segmented by OPRP genetic signature status; assay type: in vivo, human; settings: for Mean difference between olanzapine and labelled atypical antipsychotic, CATIE OPRP−: OPRP negative subjects; for Mean difference between olanzapine and labelled atypical antipsychotic, CATIE OPRP− / Mean difference between olanzapine and labelled atypical antipsychotic, CATIE unsegemented: delta PANSS, negative = olanzapine superior
Description: Genotype and phenotype data for the CATIE trial were recently made available to qualified researchers through the NIMH Center for Collaborative Genetic Studies on Mental Disorders. The sample consisted of a total of 738 patients. For the present study, the inventors assigned OPRP status to 628 subjects, including 411 subjects of self-reported European ancestry and 217 subjects of self-reported African ancestry. Further details on the patient population are described in the study by Sullivan and coworkers (Sullivan et al., 2008). The CATIE SNP genotype data evaluated included a total of 492,900 SNPs located throughout the genome.
The design of the CATIE study has been described in detail by others (Lieberman et al., 2005; Stroup et al., 2003). […] Subjects that failed Phase I treatment with the typical antipsychotic perphenazine were treated differently than those subjects that failed phase I treatment with an atypical antipsychotic. Instead of entering into Phase II of the trial, subjects who switched from perphenazine entered Phase IB. […] Subjects who failed Phase IB then entered Phase II.
(§1) A total of 738 subjects consented to provide DNA for genetic study. […] Only retrospective genetic analyses, judged to be exempt from human studies requirements by an IRB, were conducted in the current study. For the genetic analyses presented herein, the inventors combined and evaluated drug response data for both Phase I and Phase IB of the CATIE study. All tested patients were studied using well established clinical endpoints comparing baseline, intermediate, and last observation carried forward (LOCF) for the PANSS scores using CATIE data. LOCF analysis is a commonly used clinical endpoint for clinical trials for neuropsychiatric drugs, with particular changes in PANSS scores being used to indicate clinically significant response (Leucht et al., 2009).
Using the clinical data from the CAIE trial, the inventors derived several different metrics used for quantifying response in clinical trials of antipsychotic medications. The most commonly used psychometric instrument is the Positive and Negative Syndrome Scale (PANSS), a 30-item semi-quantitative instrument scored by clinical professionals (Kay et al., 1987). The greater the decrease in PANSS score, the better the clinical response. The most direct measure of clinical response is absolute change in PANSS score. In addition to absolute change, the improvement is often reported as a percentage change from baseline PANSS score.
To examine the relationship of genotypes to drug response the inventors used the publically available PLINK software (Purcell et al., 2007; available on the world wide web at pngu.mgh.harvard.edu/purcell/plink/) and Helix tree (Version 6.4.1; Golden Helix, Bozeman, Mont.). The inventors used Last observation Carry Forward (LOCF) delta PANSS values as a measure of response to antipsychotic treatment. […] The inventors refined the test further by conducting association analysis on using only those subjects that comprised the TT genotype of rs11960832.
As mentioned previously, the mean change in absolute or percent PANSS provides an important measure of efficacy in patients undergoing antipsychotic treatments. Indeed, many pivotal trials in the psychosis field used absolute and/or percentage change in PANSS Score as the primary endpoint (Leucht et al., 2009).

[2] = test system: patients suffering from schizophrenia and related disorders; assay: CATIE study: worsening of symptoms (LOCF delta PANSS ≧0%) by OPRP status; assay type: in vivo, human; settings: for Worsening: delta PANSS ≧0%
Protocol: as §1
The inventors also examined the impact of the OPRP status on whether patients' symptoms actually got worse when treated with olanzapine. This is an important safety consideration for antipsychotic drugs response, and failure of a drug to display the desired clinical response on a specific subset of patients could impact the drug label, being contraindicated for a particular subset of patients (see Example 5: “Risk Management Involving the OPRP Genetic Test). […]

[3] = among antipsychotic medications; cited from earlier work
[4] = test system: patients suffering from schizophrenia and related disorders; assay: CATIE study: categorical responders (change in total PANSS ≦−10%, LOCF) by OPRP status; assay type: in vivo, human; settings: for Responders: change in total PANSS ≦−10%
Protocol: A total of 738 subjects consented to provide DNA for genetic study. Details regarding SNP genotyping and quality control have been recently published (Sullivan et al., 2008). Only retrospective genetic analyses, judged to be exempt from human studies requirements by an IRB, were conducted in the current study. For the genetic analyses presented herein, the inventors combined and evaluated drug response data for both Phase I and Phase IB of the CATIE study. All tested patients were studied using well established clinical endpoints comparing baseline, intermediate, and last observation carried forward (LOCF) for the PANSS scores using CATIE data. LOCF analysis is a commonly used clinical endpoint for clinical trials for neuropsychiatric drugs, with particular changes in PANSS scores being used to indicate clinically significant response (Leucht et al., 2009). […] As described above CATIE patients were studied using well established clinical endpoints comparing baseline, intermediate, and last observation carried forward (LOCF) for the PANSS scores.

psychopathology (PANSS) [5] = settings: meta-analysis, population not segmented by OPRP; negative = greater reduction in PANSS; cited from earlier work
psychopathology = settings: meta-analysis, Davis et al. (2003); cited from earlier work
psychopathology (PANSS) [6] = settings: weighted mean difference in PANSS score (absolute); negative = olanzapine superior; cited from earlier work
[7] = Caucasian subjects, OPRP Negative
[8] = Caucasian subjects, OPRP Positive
[9] = Caucasian patients, OPRP Negative, LOCF
[10] = Caucasian patients, OPRP Negative
[11] = Caucasian patients, OPRP Positive, LOCF
[12] = Caucasian patients, OPRP Positive
[13] = OPRP Negative subjects, CATIE Phase I and IB, more negative = greater improvement
[14] = OPRP Positive subjects, CATIE Phase I and IB, more negative = greater improvement
[15] = comparator = OPRP positive subjects treated with the labelled drug, positive = poorer response to olanzapine
[16] = olanzapine OPRP positive versus labelled drug OPRP positive, CATIE

Compound	DELTA PANSS % (mean change in PANSS score from baseline to LOCF) [1, 7]	DELTA PANSS % (mean change in PANSS score from baseline to LOCF) [1, 8]	DELTA PANSS % (mean change in PANSS score from baseline to LOCF) [1, 13]	DELTA PANSS % (mean change in PANSS score from baseline to LOCF) [1, 14]	Number of individuals with change in total PANSS ≦−10% (responders) ([4]; OPRP Negative)	Number of individuals with change in total PANSS ≧−10% (non-responders) ([4]; OPRP Negative)	Responders ([4]; OPRP Negative)	Number of individuals with change in total PANSS ≦−10% (responders) ([4]; OPRP Positive)	Number of individuals with change in total PANSS ≧−10% (non-responders) ([4]; OPRP Positive)	Responders ([4]; OPRP Positive)	Number of individuals with delta PANSS ≦0% (non-worsening) ([2]; OPRP Negative, LOCF)	Number of individuals with delta PANSS ≧0% (worsening symptoms) ([2]; OPRP Negative, LOCF)	Worsening ([2]; OPRP Negative, LOCF)	Number of individuals with delta PANSS ≦0% (non-worsening) ([2]; OPRP Positive, LOCF)	Number of individuals with delta PANSS ≧0% (worsening symptoms) ([2]; OPRP Positive, LOCF)	Worsening ([2]; OPRP Positive, LOCF)	Mean difference in delta PANSS: olanzapine-treated OPRP positive group minus comparator group [1, 15]	Effect size (mean difference / standard deviation) [1, 16]	Effect Size vs. Placebo (psychopathology (PANSS) [5])	Mean difference between olanzapine and labelled atypical antipsychotic, Meta-analysis (psychopathology (PANSS) [6])	further results
CN1CCN(C2=Nc3cc(Cl)ccc3Nc3ccccc32)CC1 [Clozapine]	−13.1%	28%	–	–	–	–	–	–	–	–	–	–	–	–	–	–	–	–	–	–	Number of individuals with delta PANSS ≦0% (non-worsening) [2, 9]: 25; Number of individuals with delta PANSS ≧0% (worsening symptoms) [2, 9]: 9; Worsening [2, 10]: 26%*; Number of individuals with delta PANSS ≦0% (non-worsening) [2, 11]: 0; Number of individuals with delta PANSS ≧0% (worsening symptoms) [2, 11]: 2; Worsening [2, 12]: 100%; Incidence of metabolic side-effects [3]: greatest incidence of metabolic side-effects
Cc1cc2c(s1)Nc1ccccc1N=C2N1CCN(C)CC1 [Olanzapine]	–	–	−11.6%	4.3%	73	66	53%*	1	25	4%	113	26	19%*	8	18	69%	–	–	–	–	Effect size, olanzapine-treated OPRP positive patients compared to various other OPRP-drug combinations ([1]; CATIE study, range over comparisons): 0.2 to 1.0; Mean difference in delta PANSS: olanzapine-treated OPRP positive group minus comparator group ([1]; comparator = olanzapine-treated OPRP negative subjects): 15.9; Effect size (mean difference / standard deviation) ([1]; olanzapine OPRP positive versus olanzapine OPRP negative, CATIE): 1.0^a; Effect size (mean difference / standard deviation) ([1]; olanzapine OPRP positive versus olanzapine OPRP negative, CATIE, listed as olanzapine): 1.0; Incidence of metabolic side-effects [3]: greatest incidence of metabolic side-effects
OCCN1CCN(CCCN2c3ccccc3Sc3ccc(Cl)cc32)CC1 [Perphenazine]	–	–	−4.2^+++ %	−7.7^ %	39	71	35%^+	5	7	42%^^	65	45	41%^+++	9	3	25%^	12	0.7	–	–	–
OCCOCCN1CCN(C2=Nc3ccccc3Sc3ccccc32)CC1 [Quetiapine]	−0.6%	12%	−3.2^++++ %	−1.2%	48	99	33%^+++	4	14	22%	95	62	42%^+++	9	9	50%	5.5	0.3^b	−0.42	−3.7	Response of OPRP positive group compared with OPRP negative group (percent change in PANSS) ([1]; Caucasian subjects, CATIE): responded worse; Mean difference between olanzapine and labelled atypical antipsychotic, CATIE OPRP− [1]: −8.4; Mean difference between olanzapine and labelled atypical antipsychotic, CATIE unsegemented [1]: −6.2; Effect size (mean difference / standard deviation) ([1]; olanzapine OPRP positive versus labelled drug OPRP positive, CATIE, listed as quetiapine): 0.3; Number of individuals with delta PANSS ≦0% (non-worsening) [2, 9]: 85; Number of individuals with delta PANSS ≧0% (worsening symptoms) [2, 9]: 62; Worsening [2, 10]: 42%*; Number of individuals with delta PANSS ≦0% (non-worsening) [2, 11]: 2; Number of individuals with delta PANSS ≧0% (worsening symptoms) [2, 11]: 7; Worsening [2, 12]: 78%; Effect Size vs. FGA (first generation antipsychotics) (psychopathology): 0.01
Cc1nc2n(c(=O)c1CCN1CCC(c3noc4cc(F)ccc34)CC1)CCCC2 [Risperidone]	–	–	–	–	55	91	38%^+	7	12	35%^	91	55	38%^+++	13	7	35%^	–	–	−0.59	−1.9	–
O=C1Cc2cc(CCN3CCN(c4nsc5ccccc45)CC3)c(Cl)cc2N1 [Ziprasidone]	–	–	−1.5^++++ %	−0.5%	16	53	23%^++++	2	9	18%	35	34	49%^++++	7	4	36%	4.8	0.2^b	−0.48	−8.3	Mean difference between olanzapine and labelled atypical antipsychotic, CATIE OPRP− [1]: −10.1; Mean difference between olanzapine and labelled atypical antipsychotic, CATIE unsegemented [1]: −4.9; Effect size (mean difference / standard deviation) ([1]; olanzapine OPRP positive versus labelled drug OPRP positive, CATIE, listed as ziprasidone): 0.2; Effect Size vs. FGA (first generation antipsychotics) (psychopathology): −0.04
